What was measured:
[1] = test system: Mycobacterium marinum CAMP 5644; assay: MBC, agar aliquot subculture method, MM; assay type: cell-based; details: CAMP5644
Experimental: (§1) For the above-mentioned strains/isolates, the agar aliquot subculture method was used as a test for bactericidal agents. After the MIC value determination, the inoculum was transferred to CaMH (Oxoid) for staphylococci, BHI (Oxoid) for enterococci, and Middlebrook 7H9 (Difco) for mycobacteria medium using a multipoint inoculator. As indicated above, the plates were incubated on a thermostat at 37 °C for the appropriate time for each micro-organism. The lowest concentration of test compound at which ≤5 colonies were obtained was then evaluated as MBC, corresponding to a 99.9% decrease in CFU relative to the original inoculum.

[2] = test system: NHDF (normal human dermal fibroblasts); assay: WST-1 proliferation assay, NHDF; assay type: cell-based; details: Homo sapiens, NHDF, normal cells, 72 h exposure
Experimental: (§2) Compounds were evaluated for their antiproliferative activity using three cultured cell lines: A549 (human lung carcinoma, ATCC, Manassas, VA, USA), SNB-19 (human glioblastoma, DSMZ, German Collection of Microorganisms and Cell Cultures), T-47D (human breast cancer, ATCC, Manassas, VA, USA), and NHDF (normal human dermal fibroblasts, ATCC, Manassas, VA, USA). The cultured cells were kept at 37 °C and 5% CO2. The cells were seeded (1 × 10^4 cells/well/100 μL DMEM supplemented with 10% FCS, streptomycin, and penicillin) using 96-well plates (corning). Cells were counted in a hemocytometer (Burker chamber) using a phase contrast Olympus IX50 microscope equipped with a Sony SSC-DC58 AP camera and an Olympus DP10 digital camera.
(§3) The antiproliferative effect of the compounds exerted on cancer and normal cells was determined using the Cell Proliferation Reagent WST-1 assay (Roche Molecular Biochemicals, Mannheim, Germany). This assay is based on a colorimetric method using the enzymatic ability of viable cells to cause the bright, red-colored stable tetrazolium monosodium salt [2-(4-iodophenyl)-3-(4-nitrophenyl)-5-(2,4-disulfophenyl)–2H-tetra-zolium] to transform into the dark, red-colored soluble formazan. […] An increase in the amount of formazan dye formed correlated with the number of metabolically active cells in the culture. The formazan dye produced by metabolically active cells was quantified by absorbance readings at appropriate wavelengths. The examined cells were exposed to the tested compounds (1 mM DMSO stock) for 72 h at various concentrations (0.1–100 μM). The control was performed in order to eliminate the DMSO effect at the concentration used. Cell cultures were incubated with WST-1 (10 μL) for 1 h. The absorbance of the samples was measured against a background control at 450 nm using a microplate reader with a reference wavelength at 600 nm. The obtained results are expressed as the means of at least two independent experiments performed in triplicate. The antiproliferative activity of the tested compounds was compared to that of cisplatinum. The values of IC50 (a concentration of a compound that is required for 50% inhibition) were calculated from the dose-response relationship with respect to control. The results were reported as the mean (±std) of three separate experiments.

[3] = test system: vancomycin-resistant E. faecalis VRE 368; assay: MIC, microtitration broth method, VRE2; assay type: cell-based; details: Enterococcus faecalis, 24 h at 37 °C
Experimental: (§4) In vitro antibacterial activity of the synthesized compounds was evaluated against representatives of multidrug-resistant bacteria, three clinical isolates of methicillin-resistant S. aureus: clinical isolates of animal origin, MRSA 63718 (Department of Infectious Diseases and Microbiology, Faculty of Veterinary Medicine, University of Veterinary Sciences Brno, Czech Republic), carrying the mecA gene; and MRSA SA 630 and MRSA SA 3202 [52] (National Institute of Public Health, Prague, Czech Republic), both of human origin. […] Vancomycin- and methicillin-susceptible S. aureus ATCC 29213 and vancomycin-susceptible Enterococcus faecalis ATCC 29212, obtained from the American Type Culture Collection, were used as the reference and quality control strains. Three vanA gene-carrying vancomycin-resistant isolates of E. faecalis (VRE 342B, VRE 368, VRE 725B) were provided by Oravcova et al..
(§5) The minimum inhibitory concentrations (MICs) were evaluated by the microtitration broth method according to the CLSI, with some modifications. The compounds were dissolved in DMSO (Sigma, St. Louis, MO, USA) to obtain a concentration of […] and diluted in a microtitration plate in an appropriate medium, i.e., Cation Adjusted Mueller–Hinton Broth (CaMH, Oxoid, Basingstoke, UK) for staphylococci, and Brain Heart Infusion Broth (BHI, Oxoid) for enterococci, to reach the final concentration of 256–0.125 µg/mL. Microtiter plates were inoculated with test micro-organisms so that the final concentration of bacterial cells was 10^5. […] A drug-free control and a sterility control were included. The plates were incubated for 24 h at 37 °C for staphylococci and enterococci. […] The experiments were repeated three times.

[4] = test system: Enterococcus faecalis ATCC 29213; assay: MIC, microtitration broth method, EF; assay type: cell-based; details: ATCC29213, 24 h at 37 °C
[5] = test system: methicillin-resistant S. aureus 63718; assay: MIC, microtitration broth method, MRSA3; assay type: cell-based; details: Staphylococcus aureus; 24 h at 37 °C
Experimental: as §4, §5

[6] = test system: methicillin-resistant S. aureus 63718; assay: MBC, agar aliquot subculture method, MRSA3; assay type: cell-based; details: Staphylococcus aureus
Experimental: as §1

[7] = test system: vancomycin-resistant E. faecalis VRE 725B; assay: MIC, microtitration broth method, VRE3; assay type: cell-based; details: Enterococcus faecalis, 24 h at 37 °C
Experimental: as §4, §5

[8] = test system: Mycobacterium smegmatis ATCC 700084; assay: MIC, broth dilution micro-method, MS; assay type: cell-based; details: Mycolicibacterium smegmatis, ATCC700084, 72 h; 3 days at 37 °C
[9] = test system: T-47D (human breast cancer); assay: WST-1 proliferation assay, T47D; assay type: cell-based; details: Homo sapiens, T47D, 72 h exposure
Experimental: as §2, §3

[10] = test system: Mycobacterium smegmatis ATCC 700084; assay: MBC, agar aliquot subculture method, MS; assay type: cell-based; details: Mycolicibacterium smegmatis, ATCC700084
Experimental: as §1

[11] = test system: vancomycin-resistant E. faecalis VRE 342B; assay: MIC, microtitration broth method, VRE1; assay type: cell-based; details: Enterococcus faecalis, 24 h at 37 °C
Experimental: as §4, §5

[12] = test system: Staphylococcus aureus ATCC 29213; assay: MIC, microtitration broth method, SA; assay type: cell-based; details: ATCC29213, 24 h at 37 °C
Experimental: as §4, §5

[13] = test system: A549 (human lung carcinoma); assay: WST-1 proliferation assay, A549; assay type: cell-based; details: Homo sapiens, A549, 72 h exposure
Experimental: as §2, §3

[14] = test system: methicillin-resistant S. aureus SA 630; assay: MIC, microtitration broth method, MRSA2; assay type: cell-based; details: Staphylococcus aureus; 24 h at 37 °C
Experimental: as §4, §5

[15] = test system: methicillin-resistant S. aureus SA 3202; assay: MIC, microtitration broth method, MRSA1; assay type: cell-based; details: Staphylococcus aureus; 24 h at 37 °C
Experimental: as §4, §5

[16] = test system: Mycobacterium marinum CAMP 5644; assay: MIC, broth dilution micro-method, MM; assay type: cell-based; details: CAMP5644, 504 h, 21 days at 28 °C
[17] = test system: SNB-19 (human glioblastoma); assay: WST-1 proliferation assay, SNB-19; assay type: cell-based; details: Homo sapiens, SNB-19, 72 h exposure
Experimental: as §2, §3

[18] = test system: methicillin-resistant S. aureus SA 630; assay: MBC, agar aliquot subculture method, MRSA2; assay type: cell-based; details: Staphylococcus aureus
Experimental: as §1

[19] = test system: Staphylococcus aureus ATCC 29213; assay: MBC, agar aliquot subculture method, SA; assay type: cell-based; details: ATCC29213
Experimental: as §1

[20] = test system: methicillin-resistant S. aureus SA 3202; assay: MBC, agar aliquot subculture method, MRSA1; assay type: cell-based; details: Staphylococcus aureus
Experimental: as §1

[21] = test system: Mycobacterium smegmatis ATCC 700084; details: 3 days

| SMILES | MBC [1] [µM] | IC50 [2] [µM] | MIC [3] [µM] | MIC [4] [µM] | MIC [5] [µM] | MBC [6] [µM] | MIC [7] [µM] | MIC [8] [µM] | IC50 [9] [µM] | MBC [10] [µM] | MIC [11] [µM] | MIC [12] [µM] | IC50 [13] [µM] | MIC [14] [µM] | MIC [15] [µM] | MIC [16] [µM] | IC50 [17] [µM] | also measured |
| --- | --- | --- | --- | --- | --- | --- | --- | --- | --- | --- | --- | --- | --- | --- | --- | --- | --- | --- |
| C=CCn1cc(COc2ccc3c(c2)Nc2c(c[n+](C)c4ccccc24)S3)nn1 [2b, 5-Methyl-10-(1-allyl-1H-1,2,3-triazol-4-yl)methoxy-12H-quino [3,4-b][1,4]benzothiazinium chloride] | 65.5 | > 100 | > 524 | > 524 | 262 | 262 | 524 | 65.5 | 5.3 ± 0.6 | 65.5 | > 524 | 524 | 1.8 ± 0.2 | > 524 | > 524 | 65.5 | 2.7 ± 0.4 | – |
| C=CCn1cc(COc2cccc3c2Nc2c(c[n+](C)c4ccccc24)S3)nn1 [2c, 5-Methyl-11-(1-allyl-1H-1,2,3-triazol-4-yl)methoxy-12H-quino [3,4-b][1,4]benzothiazinium chloride] | 131 | > 100 | > 524 | > 524 | 524 | – | 524 | 65.5 | 7.6 ± 0.4 | 65.5 | > 524 | 524 | 5.7 ± 0.9 | 524 | 524 | 131 | 4.1 ± 0.5 | – |
| C[n+]1cc2c(c3ccccc31)Nc1ccc(OCc3cn(Cc4ccccc4)nn3)cc1S2 [2d, 5-Methyl-9-(1-benzyl-1H-1,2,3-triazol-4-yl)methoxy-12H-quino [3,4-b][1,4]benzothiazinium chloride] | 32.7 | > 100 | > 524 | > 524 | 65.5 | 65.5 | > 524 | 32.7 | 8.6 ± 0.7 | 32.7 | > 524 | 131 | 6.3 ± 0.4 | 131 | 131 | 32.7 | 2.5 ± 0.1 | MBC [18]: 131 µM; MBC [19]: 65.5 µM; MBC [20]: 131 µM |
| C[n+]1cc2c(c3ccccc31)Nc1c(OCc3cn(Cc4ccccc4)nn3)cccc1S2 [2f, 5-Methyl-11-(1-benzyl-1H-1,2,3-triazol-4-yl)methoxy-12H-quino [3,4-b][1,4]benzothiazinium chloride] | 65.5 | 30.5 ± 2.1 | > 524 | > 524 | 524 | – | > 524 | 65.5 | 20.5 ± 1.4 | 65.5 | > 524 | > 524 | 11.5 ± 0.6 | > 524 | > 524 | 65.5 | 8.5 ± 0.5 | – |
| C[n+]1cc2c(c3ccccc31)Nc1ccc(OCc3cn(Cc4ccc([N+](=O)[O-])cc4)nn3)cc1S2 [2g, 5-Methyl-9-[1-(4-nitrobenzyl)-1H-1,2,3-triazol-4-yl]methoxy-12H-quino [3,4-b][1,4]benzothiazinium chloride] | 131 | 27.6 ± 0.6 | 262 | 262 | 65.5 | 65.5 | 131 | 32.7 | 11.8 ± 0.5 | 65.5 | 524 | 262 | 4.5 ± 0.3 | 262 | 262 | 65.5 | 8.4 ± 0.7 | MBC [19]: 262 µM; MBC [20]: 262 µM |
| C[n+]1cc2c(c3ccccc31)Nc1c(OCc3cn(Cc4ccc([N+](=O)[O-])cc4)nn3)cccc1S2 [2i, 5-Methyl-11-[1-(4-nitrobenzyl)-1H-1,2,3-triazol-4-yl]methoxy-12H-quino [3,4-b][1,4]benzothiazinium chloride] | 131 | > 100 | > 524 | > 524 | 524 | – | 524 | 65.5 | 2.8 ± 0.2 | 65.5 | > 524 | 524 | 9 ± 0.4 | 524 | 524 | 131 | 4.9 ± 0.3 | – |
| C[n+]1cc2c(c3ccccc31)Nc1cc(OCc3cn(-c4ccc(Cl)cc4)nn3)ccc1S2 [2n, 5-Methyl-10-(1-(4-chlorophenyl)-1H-1,2,3-triazol-4-yl)methoxy-12H-quino [3,4-b][1,4]benzothiazinium chloride] | 32.7 | > 100 | > 524 | > 524 | 262 | 262 | > 524 | 16.3 | 15.4 ± 1.1 | 16.3 | > 524 | > 524 | 14.3 ± 0.8 | > 524 | > 524 | 32.7 | 42.9 ± 1.8 | Conc.: lowest multiple of MBC with at least 70% inhibition of respiratory activity ([21]; MTT): 1× MIC (1× MBC); Conc.: lowest multiple of MIC with at least 70% inhibition of respiratory activity ([21]; MTT): 1× MIC (1× MBC); viability of M. smegmatis at MIC value ([21]; Mycobacterium smegmatis): less than 70%; M. smegmatis Respiration Inhibition ([21]; at the concentration (lowest multiple of MIC with at least 70% inhibition)): 85.9% |
